# Test results from US7618796B2, “Peptide-forming enzyme gene, peptide-forming enzyme, and peptide producing method” (Ajinomoto Co., Inc., priority 2001, dated 2009).
# Like-named read-outs stand apart in the source and are kept apart here. Residues, ends and D or L forms follow the SMILES beside them.
# Key:
# [1] = tested on: Pseudomonas putida strain FERM BP-8101; test: Dipeptide production from test L-alanine esters / L-amino acids by cell suspension; assay type: cell-based; conditions: 20 mM EDTA, pH 9.0, 1 hour, 30° C.; for L-alanyl-L-glutamine produced: test L-alanine ester hydrochloride 200 mM with L-glutamine 400 mM; for L-alanyl dipeptide produced: L-alanine methyl ester hydrochloride 200 mM with test L-amino acid 400 mM
# Procedure: Note that in the examples, quantitative determination of L-alanine, L-alanyl-L-glutamine or L-alanyl-L-asparagine was carried out by a method using high performance liquid chromatography (column: Inertsil ODS-2 (GL Science), eluate: aqueous phosphate solution (pH 2.2, 5.0 mM sodium 1-octane sulfonate/methanol=100/15), flow rate: 1.0 mL/min, detection: 210 nm).
# [2] = tested on: His-Tag purified peptide-forming enzyme of Corynebacterium glutamicum strain ATCC 13286; test: Study of substrate specificity using His-Tag purified enzyme; assay type: biochemical; conditions: 25° C.; for quantity of dipeptide produced from test amino acid methyl ester and L-glutamine / production of peptide of the corresponding amino acid and L-glutamine (not quantified): 100 mM test amino acid methyl ester, 150 mM L-glutamine; for quantity of dipeptide produced from test amino acid methyl ester and L-glutamine / quantity of L-alanyl dipeptide produced from L-alanine methyl ester and test amino acid: enzyme 0.05 U/ml, pH 9.0, 3 hours; for production of peptide of the corresponding amino acid and L-glutamine (not quantified): 3 hours, no standard preparation; for quantity of L-alanyl dipeptide produced from L-alanine methyl ester and test amino acid: 100 mM L-alanine methyl ester hydrochloride, 150 mM test amino acid
# Source text: The synthesis of peptides other than the L-alanyl-L-glutamine by the acquired peptide-forming enzyme was studied using His-Tag purified enzyme. […]
# [3] = tested on: peptide-forming enzyme purified from Corynebacterium glutamicum strain ATCC 13286; test: Dipeptide production by enzyme purified from Corynebacterium glutamicum; assay type: biochemical; conditions: 100 mM L-alanine methyl ester hydrochloride with 200 mM test L-amino acid, 2 units enzyme, 10 mM EDTA, pH 9.0, 4 hours, 30° C.
# Procedure: This purified enzyme was then added to borate buffer (pH 9.0) containing EDTA, L-alanine methyl ester hydrochloride and L-glutamine (or L-asparagine), mixed to the total volume of 1 mL (for the final concentrations, the amount of enzyme added was 2 units as alanine amide decomposition activity, EDTA was at 10 mM, L-alanine methyl ester hydrochloride was at 100 mM and L-glutamine (or L-asparagine) was at 200 mM borate buffer at 100 mM), and allowed to react for 4 hours at 30° C.
# [4] = tested on: proline iminopeptidase of Pseudomonas putida strain FERM BP-8123; test: Effect of inhibitors on L-alanyl-L-glutamine synthesis; assay type: biochemical; conditions: 1 mM inhibitor, 30 minutes, 30° C.
# [5] = tested on: proline iminopeptidase of Pseudomonas putida strain ATCC 12633; test: as above; assay type: biochemical; conditions: 1 mM inhibitor, 30 minutes, 30° C.
# Procedure: The effects of inhibitors on acquired proline iminopeptidase were investigated. The enzyme reaction was carried out for 30 minutes at 30° C. with a reaction solution consisting of 0.1 M borate buffer (pH 9.0), 10 mM EDTA, 100 mM L-alanine methyl ester hydrochloride, 150 mM L-glutamine and 1 mM inhibitor, followed by measurement of L-alanyl-L-glutamine synthesis. […] The activity was not affected by any of the inhibitors investigated for Corynebacterium glutamicum strain ATCC 13286.
# [6] = target: proline iminopeptidase of Bacillus coagulans strain EK01 (Heyndrickxia coagulans, UniProt P46541); test: as above; assay type: biochemical; conditions: 1 mM inhibitor, 30 minutes, 30° C.
# Chain of proline iminopeptidase of Bacillus coagulans strain EK01 (P46541 whole entry): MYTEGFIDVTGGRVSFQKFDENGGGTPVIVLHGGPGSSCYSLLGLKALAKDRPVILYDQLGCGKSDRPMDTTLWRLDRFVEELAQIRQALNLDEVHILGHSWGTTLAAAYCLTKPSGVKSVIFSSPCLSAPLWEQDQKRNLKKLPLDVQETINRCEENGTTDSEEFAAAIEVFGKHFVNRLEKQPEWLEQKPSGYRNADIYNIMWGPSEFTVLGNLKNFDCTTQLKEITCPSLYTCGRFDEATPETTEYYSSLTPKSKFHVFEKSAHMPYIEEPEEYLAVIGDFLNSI
# [7] = Enzyme titer: L-alanine amide decomposition activity; assay type: biochemical; conditions: Tris-HCl pH 9.0, 60 minutes, 30° C.
# Procedure: The specific activity of the purified enzyme was 9.841 U/mg, and the specific activity of the purified peptide-forming enzyme was increased about 246-fold as a result of going through these purification steps. In addition, as a result of applying the molecular weight of the purified enzyme standard to SDS polyacrylamide electrophoresis, a uniform band was detected at the position calculated to represent a molecular weight of 42,000 to 46,000. Measurement of enzyme titer was carried out as described below. 200 μM of Tris-HCl buffer (pH 9.0), 50 μM of L-alanine amide and a suitable amount of enzyme liquid were added and mixed to a final volume 1 mL, and after allowing to react for 60 minutes at 30° C., 4 mL of aqueous phosphoric acid (pH 2.1) was added to stop the reaction. The alanine produced was quantified by high-performance liquid chromatography, and the amount of enzyme that produces 1 μM of L-alanine in 1 minute was defined as 1 unit.
# [8] = tested on: Pseudomonas putida strain FERM BP-8101; conditions: substrate solution with 20 mM EDTA, 200 mM L-alanine ethyl ester hydrochloride, 400 mM L-glutamine, pH 9.0, 1 hour, 30° C.; 4.9 mM with no EDTA
# Source text: However, the present invention is not limited to these examples.
compound,measurement,setting,value
C[C@H](N)C(=O)OC(C)(C)C.Cl [L-alanine-tert-butyl ester hydrochloride],L-alanyl-L-glutamine produced,[1],0.5 mM
COC(=O)CN [glycine methyl ester],quantity of dipeptide produced from test amino acid methyl ester and L-glutamine,[2],52.19 mM
"COC(=O)C[C@H](N)C(=O)OC [L-aspartic acid-α,β-dimethyl ester]",production of peptide of the corresponding amino acid and L-glutamine (not quantified),[2],confirmed to be produced
COC(=O)[C@@H](N)CCC(N)=O [L-glutamine methyl ester],quantity of dipeptide produced from test amino acid methyl ester and L-glutamine,[2],0.23 mM
NC(=O)CC[C@H](N)C(=O)O [L-glutamine],L-alanyl dipeptide produced,[1],12.7 mM
same,amount of L-alanyl dipeptide produced,[3],50.2 mM
CC[C@H](C)[C@H](N)C(=O)N[C@@H](CCC(N)=O)C(=O)O [L-isoleucyl-L-glutamine] (H-Ile-Gln-OH),quantity of dipeptide produced from test amino acid methyl ester and L-glutamine,[2],0.59 mM
N[C@@H](Cc1c[nH]c2ccccc12)C(=O)O [L-tryptophan],quantity of L-alanyl dipeptide produced from L-alanine methyl ester and test amino acid,[2],15.31 mM
N=C(N)NCCC[C@H](N)C(=O)O [L-arginine],quantity of L-alanyl dipeptide produced from L-alanine methyl ester and test amino acid,[2],24.87 mM
NCCCC[C@H](N)C(=O)O [L-lysine],quantity of L-alanyl dipeptide produced from L-alanine methyl ester and test amino acid,[2],7.91 mM
N[C@@H](CCC(=O)O)C(=O)O [L-glutamate],quantity of L-alanyl dipeptide produced from L-alanine methyl ester and test amino acid,[2],1.11 mM
"CCN1C(=O)C=CC1=O [NEM, N-ethylmaleimide]",effect on enzyme activity,[4],nearly completely inhibited
same,effect on enzyme activity,[5],nearly completely inhibited
same,effect on enzyme activity,[6],nearly completely inhibited
peptide-forming enzyme purified from Corynebacterium glutamicum strain ATCC 13286: native enzyme purified to uniformity; amino acid sequence SEQ ID NO: 5,specific activity (L-alanine amide decomposition),[7],9.841 U/mg
COC(=O)[C@H](C)N.Cl [L-alanine methyl ester hydrochloride],L-alanyl-L-glutamine produced,[1],14.9 mM
N[C@@H](Cc1ccc(O)cc1)C(=O)O [L-tyrosine],quantity of L-alanyl dipeptide produced from L-alanine methyl ester and test amino acid,[2],0.96 mM
C[C@H](N)C(=O)O [L-alanine],quantity of L-alanyl dipeptide produced from L-alanine methyl ester and test amino acid,[2],10.63 mM
CSCC[C@H](N)C(=O)O [L-methionine],quantity of L-alanyl dipeptide produced from L-alanine methyl ester and test amino acid,[2],48.80 mM
N[C@@H](Cc1c[nH]cn1)C(=O)O [L-histidine],quantity of L-alanyl dipeptide produced from L-alanine methyl ester and test amino acid,[2],23.16 mM
COC(=O)[C@@H](N)CC(C)C [L-leucine methyl ester],production of peptide of the corresponding amino acid and L-glutamine (not quantified),[2],confirmed to be produced
COC(=O)[C@@H](N)C(C)C [L-valine methyl ester],quantity of dipeptide produced from test amino acid methyl ester and L-glutamine,[2],5.94 mM
COC(=O)[C@@H](N)CC(=O)O [L-aspartic acid-α-methyl ester],quantity of dipeptide produced from test amino acid methyl ester and L-glutamine,[2],8.22 mM
N[C@@H](Cc1ccccc1)C(=O)O [L-phenylalanine],quantity of L-alanyl dipeptide produced from L-alanine methyl ester and test amino acid,[2],16.13 mM
C[C@@H](O)[C@H](N)C(=O)O [L-threonine],quantity of L-alanyl dipeptide produced from L-alanine methyl ester and test amino acid,[2],24.23 mM
COC(=O)[C@@H](N)CCSC [L-methionine methyl ester],quantity of dipeptide produced from test amino acid methyl ester and L-glutamine,[2],4.31 mM
CC(C)C[C@H](N)C(=O)O [L-leucine],quantity of L-alanyl dipeptide produced from L-alanine methyl ester and test amino acid,[2],13.73 mM
COC(=O)[C@@H](N)CCCCN [L-lysine methyl ester],production of peptide of the corresponding amino acid and L-glutamine (not quantified),[2],confirmed to be produced
COC(=O)[C@@H](N)Cc1ccc(O)cc1 [L-tyrosine methyl ester],quantity of dipeptide produced from test amino acid methyl ester and L-glutamine,[2],1.24 mM
CCOC(=O)[C@H](C)N.Cl [L-alanine ethyl ester hydrochloride],L-alanyl-L-glutamine produced,[1],11.4 mM
COC(=O)[C@@H](N)CO [L-serine methyl ester],quantity of dipeptide produced from test amino acid methyl ester and L-glutamine,[2],40.44 mM
COC(=O)CC[C@H](N)C(=O)O [L-glutamic acid-γ-methyl ester],production of peptide of the corresponding amino acid and L-glutamine (not quantified),[2],confirmed to be produced
COC(=O)[C@@H](N)CCCNC(=N)N [L-arginine methyl ester],quantity of dipeptide produced from test amino acid methyl ester and L-glutamine,[2],6.52 mM
O=C(O)[C@@H]1CCCN1 [L-proline],quantity of L-alanyl dipeptide produced from L-alanine methyl ester and test amino acid,[2],1.02 mM
NCC(=O)O [glycine],quantity of L-alanyl dipeptide produced from L-alanine methyl ester and test amino acid,[2],5.66 mM
"O=C(O)CN(CCN(CC(=O)O)CC(=O)O)CC(=O)O [EDTA, ethylenediaminetetraacetic acid]",L-alanyl-L-glutamine produced,[8],10.1 mM
"NC(=O)CI [IAA, iodoacetoamide]",effect on enzyme activity,[4],decreased to certain extents
same,effect on enzyme activity,[5],decreased to certain extents
same,effect on enzyme activity,[6],decreased to certain extents
N[C@@H](CO)C(=O)O [L-serine],quantity of L-alanyl dipeptide produced from L-alanine methyl ester and test amino acid,[2],26.14 mM
COC(=O)[C@@H](N)CC(N)=O [L-asparagine methyl ester],production of peptide of the corresponding amino acid and L-glutamine (not quantified),[2],confirmed to be produced
NC(=O)C[C@H](N)C(=O)O [L-asparagine],quantity of L-alanyl dipeptide produced from L-alanine methyl ester and test amino acid,[2],22.34 mM
same,L-alanyl dipeptide produced,[1],4.8 mM
same,amount of L-alanyl dipeptide produced,[3],49.8 mM
"O=S(=O)(F)Cc1ccccc1 [PMSF, phenyl methyl sulfonyl fluoride]",effect on enzyme activity,[4],did not have an effect
same,effect on enzyme activity,[5],did not have an effect
same,effect on enzyme activity,[6],did not have an effect
COC(=O)[C@@H](N)[C@@H](C)O [L-threonine methyl ester],quantity of dipeptide produced from test amino acid methyl ester and L-glutamine,[2],3.85 mM
COC(=O)C[C@H](N)C(=O)O [L-aspartic acid-β-methyl ester],production of peptide of the corresponding amino acid and L-glutamine (not quantified),[2],confirmed to be produced
